# Reference: patent US20100048714A1, “Methods and Compositions Related to Inhibition of Ceramide Synthesis” (University of Utah Research Foundation, priority 2006, published 2010)
# Experiments:
# soleus muscles = assay: Isolated soleus muscle strips incubated with free fatty acids; settings: cycloserine 1 mM or myriocin 10 μM
# Sprague-Dawley rats [1] = assay: Lipid infusion with hyperinsulinemic euglycemic clamps; assay type: in vivo, rat; settings: for Glucose, During Clamp / FFA, Before Clamp / FFA, Before Infusion / FFA, During Clamp / Glucose, Before Clamp / Glucose, Before Infusion / Insulin, Before Clamp / Insulin, Before Infusion / Insulin, During Clamp: plasma, mean ± standard error, n=4; for Glucose, During Clamp: 30 minute steady state
# Description: The more common mechanism by which insulin resistance likely develops in the obese is through the accumulation of fats in tissues not-suited for lipid storage. Indeed, intramyocellular lipid levels inversely correlate with insulin sensitivity, and are one of the best predictors of insulin resistance in humans. To mimic this condition in rats, a 20% lard oil-heparin infusate was delivered into the bloodstream of Sprague-Dawley rats via jugular catheters. […] To assess muscle insulin sensitivity during the infusion, hyperinsulinemic-euglycemic clamps were performed on conscious, unrestrained rats during the terminal 90 minutes of the protocol. Lard oil infusion decreased insulin-stimulated glucose disposal to 47% of glycerol treated control subjects (FIG. 3C). […] Differences in the glucose infusion rats could not be accounted for by the slight differences in the glucose concentration that was achieved during the clamp nor to differences in steady-state insulin concentrations (Table 3).
# Male Sprague-Dawley rats (˜250 grams) were randomly divided into nine different groups. Glycerol, 20% lard oil, or 20% soy oil emulsions were prepared as previously described (Stein 1997) and infused at a constant rate of 5 mL/Kg/hour. To activate lipoprotein lipase, heparin (6 units/hour) was added to the triglyceride emulsions. Lipids were infused in animals treated with control injections (normal saline), myriocin (100 μg/Kg IP) or cycloserine (50 mg/Kg IP). Drugs were given 12 hours prior to lipid infusion and equivalent doses were given intravenously at the time of infusion. […] Following lipid infusion animals were deeply anesthetized with sodium pentobarbital and soleus muscles were rapidly dissected out and rapidly frozen in liquid nitrogen.
# Clamps were performed in conscious unrestrained animals using swivels and tethers (Instech, Plymouth Meeting, Pa.) to allow uninterrupted movement of the animal without disruption of infusion lines. Hyperinsulinemia was initiated by intravenous infusion of insulin (10 mU/kg/min at a flow rate of 4 μL/min).
# Sprague-Dawley rats [2] = assay: Glucose tolerance test (glucose 1 g/kg IP) in dexamethasone-treated rats; assay type: in vivo, rat
# Experimental: (A) Sprague-Dawley rats were treated with myriocin (300 μg/Kg, IP, solid bars) or saline (open bars) for two weeks prior to giving administering dexamethasone (40 μg/Kg, IP) or vehicle (5% ethanol) every 12 hours for 36 hours. Animals were euthanized by CO2 inhalation, livers were removed, and ceramide levels were assessed as described in SOM-Methods. Shown are mean ceramide levels+/−S.E.M, n=6 per group. The asterisk denotes that the sample was statistically different from vehicle-treated controls, p<0.05, student's t-test. (B) Livers were obtained as in A, above, and protein and mRNA were extracted as described in SOM-Methods. Levels of transcripts (solid bars) encoding serine palimitoyl transferase isoforms 1 and 2 (SPT1 and SPT2), dihydroceramide synthases (DCS) TL1, UOG, and TRH3, glucosylceramide synthase (GCS), and acid ceramidase (AC) transcripts were obtained by reverse-transcriptase polymerase chain reaction, normalized to β-actin. SPT2 protein levels (white bars) were detected by immunoblotting with an antibody from Cayman Chemicals (Ann Arbor, Mich.) and quantified on a Kodak Image Station 2000R (Rochester, N.Y.). Data represent the fold-change in transcript or protein in dexamethasone-treated animals relative to vehicle controls. […] (C and D) Rats were challenged with glucose (1 g/kg) given intraperitoneally (IP) following treatment with dexamethasone (squares), ethanol carrier (triangles), myriocin (open shapes), or saline (solid shapes) as in A, above. Tail vein blood (3 μl) was sampled for glucose (C)(using the Glucometer Elite from Bayer Corp., Tarrytown, N.Y.) or insulin (D) (using an Elisa kit from Linco Diagnostics, Springfield, Mo.). […] (E-G) Hyperinsulinemic euglycemic clamps were performed on animals (n=4 per group) treated as in A, above, as described in SOM-Methods. Data from animals receiving myriocin are depicted in solid bars. (E) The glucose infusion rate required to maintain normal glycemia during insulin infusion ([…]) was calculated as the average infusion rate during the 60 minute steady state. (F) Hepatic glucose output was estimated by the disappearance of [^14C] glucose from a bolus dose given during the steady state minus the glucose infusion rate. (G) Disappearance of a bolus dose of [^3H] 2-deoxyglucose from the bloodstream was used to estimate the rate of whole body glucose uptake.
# Tail vein blood (3 μl) was sampled for glucose determination (Hitachi 911 clinical chemistry analyzer, Roche, Indianapolis, Ind. or Glucometer Elite, Bayer Corp., Tarrytown, N.Y.)-30 minutes, immediately before and 15, 30, 45, 60, 90, and 120 min after glucose administration. Additionally, serum was collected and analyzed for insulin by Elisa (Linco Diagnostics, Springfield, Mo.).
# [3] = test system: Zucker Diabetic Fatty (ZDF) rats; assay: Myriocin treatment of Zucker Diabetic Fatty rats; assay type: in vivo, rat
# Sprague-Dawley rats [4] = assay: Liver ceramide and ceramide-enzyme expression in dexamethasone-treated rats; assay type: in vivo, rat; settings: dexamethasone 40 μg/Kg IP every 12 hours for 36 hours; myriocin 300 μg/Kg IP for two weeks prior
# Experimental: (A) Sprague-Dawley rats were treated with myriocin (300 μg/Kg, IP, solid bars) or saline (open bars) for two weeks prior to giving administering dexamethasone (40 μg/Kg, IP) or vehicle (5% ethanol) every 12 hours for 36 hours. Animals were euthanized by CO2 inhalation, livers were removed, and ceramide levels were assessed as described in SOM-Methods. Shown are mean ceramide levels+/−S.E.M, n=6 per group. The asterisk denotes that the sample was statistically different from vehicle-treated controls, p<0.05, student's t-test. (B) Livers were obtained as in A, above, and protein and mRNA were extracted as described in SOM-Methods. Levels of transcripts (solid bars) encoding serine palimitoyl transferase isoforms 1 and 2 (SPT1 and SPT2), dihydroceramide synthases (DCS) TL1, UOG, and TRH3, glucosylceramide synthase (GCS), and acid ceramidase (AC) transcripts were obtained by reverse-transcriptase polymerase chain reaction, normalized to β-actin. SPT2 protein levels (white bars) were detected by immunoblotting with an antibody from Cayman Chemicals (Ann Arbor, Mich.) and quantified on a Kodak Image Station 2000R (Rochester, N.Y.). […] (E) The glucose infusion rate required to maintain normal glycemia during insulin infusion (4mU/kg/min) was calculated as the average infusion rate during the 60 minute steady state. […]
# [5] = Intralipid infusion, with or without myriocin or cycloserine
# [6] = lard oil infusion, with or without myriocin or cycloserine
# [7] = dexamethasone with or without myriocin pretreatment
# [8] = glucose challenge 1 g/kg IP, n=6 per group, p<0.05
# [9] = treatment starting at week 8, vs vehicle
smiles,measurement,setting,value
CCCCCCC(=O)CCCCCC/C=C/C[C@@H](O)[C@H](O)[C@@](N)(CO)C(=O)O [Myriocin],linoleate effects on 2-DOG uptake,soleus muscles; 1 mM linoleate,did not alter linoleate effects
same,linoleate effects on DAG accumulation,soleus muscles; 1 mM linoleate,did not alter linoleate effects
same,DAG in palmitate-treated muscles,soleus muscles; 1 mM palmitate,without affecting DAG
same,palmitate effect on insulin-stimulated 2-deoxyglucose uptake,soleus muscles; 1 mM palmitate,completely negated the antagonistic effects of palmitate
same,palmitate-induced ceramide accumulation,soleus muscles; 1 mM palmitate,prevented palmitate-induced ceramide accumulation
same,insulin-stimulated glucose disposal / insulin resistance,Sprague-Dawley rats [1]; [5],Neither myriocin nor cycloserine prevented
same,muscle DAG levels,Sprague-Dawley rats [1]; [5],Neither myriocin nor cycloserine prevented
same,ceramide in skeletal muscle,Sprague-Dawley rats [1]; [6],blocked ceramide synthesis
same,diacylglycerol (DAG) in muscle,Sprague-Dawley rats [1]; [6],Neither myriocin nor cycloserine reduced DAG
same,glucose utilization in clamp,Sprague-Dawley rats [1]; lard-infused animals,restored glucose utilization
same,"Glucose, During Clamp",Sprague-Dawley rats [1]; Lipid: Glycerol,111.2 ± 6.6 mg/dL
same,"Glucose, During Clamp",Sprague-Dawley rats [1]; Lipid: Lard oil (PBS or drug),108.4 ± 1.0 mg/dL
same,"Glucose, During Clamp",Sprague-Dawley rats [1]; Lipid: Soy oil (PBS or drug),108.3 ± 0.4 mg/dL
same,"FFA, Before Clamp",Sprague-Dawley rats [1]; Lipid: Glycerol,0.455 ± 0.13 mM
same,"FFA, Before Infusion",Sprague-Dawley rats [1]; Lipid: Glycerol,1.22 ± 0.25 mM
same,"FFA, During Clamp",Sprague-Dawley rats [1]; Lipid: Glycerol,0.872 ± 0.75 mM
same,"Glucose, Before Clamp",Sprague-Dawley rats [1]; Lipid: Glycerol,117.7 ± 9.1 mg/dL
same,"Glucose, Before Infusion",Sprague-Dawley rats [1]; Lipid: Glycerol,103.0 ± 10.6 mg/dL
same,"Insulin, Before Clamp",Sprague-Dawley rats [1]; Lipid: Glycerol,1.90 ± 0.71 ng/mL
same,"Insulin, Before Infusion",Sprague-Dawley rats [1]; Lipid: Glycerol,0.436 ± 0.03 ng/mL
same,"Insulin, During Clamp",Sprague-Dawley rats [1]; Lipid: Glycerol,8.02 ± 2.52 ng/mL
same,"FFA, Before Clamp",Sprague-Dawley rats [1]; Lipid: Lard oil (PBS or drug),1.52 ± 0.49 mM
same,"FFA, Before Infusion",Sprague-Dawley rats [1]; Lipid: Lard oil (PBS or drug),0.912 ± 0.30 mM
same,"FFA, During Clamp",Sprague-Dawley rats [1]; Lipid: Lard oil (PBS or drug),2.427 ± 0.30 mM
same,"Glucose, Before Clamp",Sprague-Dawley rats [1]; Lipid: Lard oil (PBS or drug),123.3 ± 3.8 mg/dL
same,"Glucose, Before Infusion",Sprague-Dawley rats [1]; Lipid: Lard oil (PBS or drug),101.0 ± 11.4 mg/dL
same,"Insulin, Before Clamp",Sprague-Dawley rats [1]; Lipid: Lard oil (PBS or drug),1.90 ± 0.50 ng/mL
same,"Insulin, Before Infusion",Sprague-Dawley rats [1]; Lipid: Lard oil (PBS or drug),0.407 ± 0.47 ng/mL
same,"Insulin, During Clamp",Sprague-Dawley rats [1]; Lipid: Lard oil (PBS or drug),17.02 ± 3.79 ng/mL
same,"FFA, Before Clamp",Sprague-Dawley rats [1]; Lipid: Soy oil (PBS or drug),1.58 ± 0.57 mM
same,"FFA, Before Infusion",Sprague-Dawley rats [1]; Lipid: Soy oil (PBS or drug),1.01 ± 0.10 mM
same,"FFA, During Clamp",Sprague-Dawley rats [1]; Lipid: Soy oil (PBS or drug),1.80 ± 0.44 mM
same,"Glucose, Before Clamp",Sprague-Dawley rats [1]; Lipid: Soy oil (PBS or drug),105.0 ± 4.6 mg/dL
same,"Glucose, Before Infusion",Sprague-Dawley rats [1]; Lipid: Soy oil (PBS or drug),109.3 ± 10.4 mg/dL
same,"Insulin, Before Clamp",Sprague-Dawley rats [1]; Lipid: Soy oil (PBS or drug),2.46 ± 1.1 ng/mL
same,"Insulin, Before Infusion",Sprague-Dawley rats [1]; Lipid: Soy oil (PBS or drug),0.305 ± 0.08 ng/mL
same,"Insulin, During Clamp",Sprague-Dawley rats [1]; Lipid: Soy oil (PBS or drug),11.55 ± 2.91 ng/mL
same,glucose disposal / glucose intolerance in glucose tolerance test,Sprague-Dawley rats [2]; [7],significantly negated glucocorticoid-induced glucose intolerance
same,insulin levels during glucose tolerance test,Sprague-Dawley rats [2]; [7],normalized circulating insulin concentrations
same,"area under the curve, glucose",Sprague-Dawley rats [2]; [8],significantly lowered the area under the curve
same,"area under the curve, insulin",Sprague-Dawley rats [2]; [8],significantly lowered the area under the curve
same,age until which the improvement in blood glucose persisted,[3]; ZDF rats,at least 16 weeks
same,"ceramides in liver, soleus and serum",[3]; ZDF rats,reduced levels of the sphingolipid in all these tissues
same,tolerability,"[3]; ZDF rats and lean controls, myriocin for up to 6 weeks",well-tolerated
same,glucose homeostasis,"[3]; male ZDF rats, myriocin 0.3 mg/kg IP every other day (FIG. 4 legend)",markedly improved glucose homeostasis
same,side effects,"[3]; rat, in vivo",no apparent side effects
same,onset of diabetes,[3]; treatment starting at week 8,prevented the onset of diabetes
same,plasma glucose levels,[3]; [9],reduced
same,triglyceride levels,[3]; [9],reduced
same,ceramide levels in the liver,Sprague-Dawley rats [4],Reducing ceramide levels
